pIC50: −log10 of the molar value.
molecular target: Melanin-concentrating hormone receptor 1 (Homo sapiens, UniProt Q99705); assay: Functional antagonism of MCH-R1 expressed in HEK293 cells; type: cell-based
Sequence (Q99705 whole entry): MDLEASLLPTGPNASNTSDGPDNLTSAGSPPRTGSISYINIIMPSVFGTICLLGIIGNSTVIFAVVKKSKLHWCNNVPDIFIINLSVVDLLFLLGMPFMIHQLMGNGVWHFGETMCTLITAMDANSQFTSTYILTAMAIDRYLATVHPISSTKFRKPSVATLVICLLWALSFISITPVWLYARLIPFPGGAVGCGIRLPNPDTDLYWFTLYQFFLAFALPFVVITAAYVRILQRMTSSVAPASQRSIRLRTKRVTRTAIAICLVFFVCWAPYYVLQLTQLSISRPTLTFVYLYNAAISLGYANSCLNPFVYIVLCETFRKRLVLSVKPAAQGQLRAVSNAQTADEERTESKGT

Row | Compound | pIC50
1 | N=C(N)NCCC[C@@H](NC(=O)c1ccnc2ccccc12)C(=O)NCc1ccc(C(F)(F)F)cc1 | 5.99
2 | COc1ccc2cc(C(=O)N[C@H](CCCNC(=N)N)C(=O)NCc3ccc(C(F)(F)F)cc3)ccc2c1 | 6.35
3 | N=C(N)NCCC[C@@H](NC(=O)c1csc2ccccc12)C(=O)NCc1ccc(C(F)(F)F)cc1 | 6.02
4 | N=C(N)NCCC[C@@H](NC(=O)c1cc2ccccc2cn1)C(=O)NCc1ccc(C(F)(F)F)cc1 | 5.74
5 | N=C(N)NCCC[C@@H](NC(=O)c1ccc2ccccc2c1)C(=O)NCc1ccc(C(F)(F)F)cc1 | 6.67
6 | COc1cccc2cc(C(=O)N[C@H](CCCNC(=N)N)C(=O)NCc3ccc(C(F)(F)F)cc3)oc12 | 6.21
7 | N=C(N)NCCC[C@@H](NC(=O)Cc1csc2ccccc12)C(=O)NCc1ccc(C(F)(F)F)cc1 | 6.00
8 | N=C(N)NCCC[C@@H](NC(=O)C(c1ccccc1)c1ccccc1)C(=O)NCc1ccc(C(F)(F)F)cc1 | 6.95
9 | N=C(N)NCCC[C@@H](NC(=O)c1cc2cc(F)ccc2[nH]1)C(=O)NCc1ccc(C(F)(F)F)cc1 | 7.60
10 | COc1ccc2[nH]c(C(=O)N[C@H](CCCNC(=N)N)C(=O)NCc3ccc(C(F)(F)F)cc3)cc2c1 | 7.11
11 | N=C(N)NCCC[C@@H](NC(=O)C1c2ccccc2-c2ccccc21)C(=O)NCc1ccc(C(F)(F)F)cc1 | 8.30
12 | N=C(N)NCCC[C@@H](NC(=O)c1ccc2ccccc2n1)C(=O)NCc1ccc(C(F)(F)F)cc1 | 6.04
13 | N=C(N)NCCC[C@@H](NC(=O)c1ccc(F)c2ccccc12)C(=O)NCc1ccc(C(F)(F)F)cc1 | 6.51

More lines, in order of rising pIC50, values ahead:

Row | pIC50 | Compound
14 | 5.75 | N=C(N)NCCC[C@@H](NC(=O)c1cccc2ccccc12)C(=O)NCc1ccc(C(F)(F)F)cc1
15 | 6.12 | N=C(N)NCCC[C@@H](NC(=O)C1c2ccccc2Cc2ccccc21)C(=O)NCc1ccc(C(F)(F)F)cc1
16 | 6.29 | N=C(N)NCCC[C@@H](NC(=O)Cc1cc2ccccc2[nH]1)C(=O)NCc1ccc(C(F)(F)F)cc1
17 | 6.50 | N=C(N)NCCC[C@@H](NC(=O)c1cc2ccccc2o1)C(=O)NCc1ccc(C(F)(F)F)cc1
18 | 6.61 | N=C(N)NCCC[C@@H](NC(=O)Cc1cccc2ccccc12)C(=O)NCc1ccc(C(F)(F)F)cc1
19 | 7.02 | N=C(N)NCCC[C@@H](NC(=O)c1cnc2ccccc2c1)C(=O)NCc1ccc(C(F)(F)F)cc1
20 | 7.35 | N=C(N)NCCC[C@@H](NC(=O)c1cc2ccccc2s1)C(=O)NCc1ccc(C(F)(F)F)cc1
21 | 7.70 | N=C(N)NCCC[C@@H](NC(=O)c1cc2ccccc2[nH]1)C(=O)NCc1ccc(C(F)(F)F)cc1
22 | 8.40 | N=C(N)NCCC[C@@H](NC(=O)C1c2ccccc2Oc2ccccc21)C(=O)NCc1ccc(C(F)(F)F)cc1

Reference: ChEMBL document CHEMBL1137587, “MCH-R1 antagonists based on an arginine scaffold: SAR studies on the amino-terminus” (Bioorg Med Chem Lett, 2007)
